Results on 36 compounds are retold here after US20230127839A1, “COMPOUNDS AND COMPOSITIONS FOR TREATING CONDITIONS ASSOCIATED WITH STING ACTIVITY” (IFM Due, Inc., priority 2019, published 2023).

Broadly, the EC50 is the concentration needed to bring the measured effect to its halfway point. A low value points to a more potent agent.

This experiment has as its target T1, hSTING (Homo sapiens, UniProt Q86WV6, G230A/H232R/R293Q/R71H).
T1 construct: host or cells: THP1-Dual KO-IFNAR2 cells
Description: STING reporter assay (luciferase) in THP1-Dual KO-IFNAR2 cells stimulated with 2'3'cGAMP. The experiment is classed as cell-based. Particulars: 2'3'cGAMP 15 μM, 24 h, luciferase reporter activity. The method, boiled down: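 THP1-Dual KO-IFNAR2 cells (2×10E6 cells/mL) exposed to compounds at 0.0017-100 μM final, then stimulated with 2′3′cGAMP (15 μM final) delivered by Lipofectamine 2000 transfection. After 24 h at 37° C, secreted luciferase in supernatant read by QUANTI-Luc luminescence; EC50 calculated.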
(Reporter assays use an easily measured gene product as a stand-in for the process of interest.)

T1 sequence (Q86WV6 whole entry R71H/G230A/H232R/R293Q): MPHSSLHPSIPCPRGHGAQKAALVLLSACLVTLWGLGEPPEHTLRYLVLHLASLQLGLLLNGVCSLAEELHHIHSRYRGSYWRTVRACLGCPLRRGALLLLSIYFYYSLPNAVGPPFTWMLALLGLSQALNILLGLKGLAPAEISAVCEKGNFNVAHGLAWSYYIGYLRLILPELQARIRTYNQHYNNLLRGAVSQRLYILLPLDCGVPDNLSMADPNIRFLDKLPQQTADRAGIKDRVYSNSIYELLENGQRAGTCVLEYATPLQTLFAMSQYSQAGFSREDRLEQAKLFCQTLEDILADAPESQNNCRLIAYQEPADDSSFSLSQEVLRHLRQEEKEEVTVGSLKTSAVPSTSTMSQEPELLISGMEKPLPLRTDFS

Regarding `O=C(Nc1cnc(N2CC3CCC(C2)O3)c(Cl)c1)Nc1c[nH]c2ccc(Cl)cc12` [Compound 285, 1-(6-(8-oxa-3-azabicyclo[3.2.1]octan-3-yl)-5-chloropyridin-3-yl)-3-(5-chloro-1H-indol-3-yl)urea], the EC50 fell in the range of 40 to 200 nM.

Consider `CS(=O)(=O)c1ccc2[nH]cc(NC(=O)Nc3cnc(N4CCC(F)(F)CC4)c(Cl)c3)c2c1` [Compound 171, 1-(5-chloro-6-(4,4-difluoropiperidin-1-yl)pyridin-3-yl)-3-(5-(methylsulfonyl)-1H-indol-3-yl)urea], for which the EC50 was 5000 to 100000 nM.

In turn, `N#Cc1cc(NC(=O)Nc2c[nH]c3ccc(Cl)cc23)cnc1C1CC(F)(F)C1` [Compound 257, 1-(5-chloro-1H-indol-3-yl)-3-(5-cyano-6-(3,3-difluorocyclobutyl)pyridin-3-yl)urea] registered an EC50 of 40 to 200 nM.

In the case of `O=C(Nc1cnc(C2CC(F)(F)C2)c(Cl)c1)Nc1c[nH]c2ccccc12` [Compound 283, 1-(5-chloro-6-(3,3-difluorocyclobutyl)pyridin-3-yl)-3-(1H-indol-3-yl)urea], the EC50 fell in the range of 40 to 200 nM.

`O=C(Nc1cncc(C2CCC(F)(F)CC2)c1)Nc1c[nH]c2ccc(Cl)cc12` [Compound 256, 1-(5-chloro-1H-indol-3-yl)-3-(5-(4,4-difluorocyclohexyl)pyridin-3-yl)urea] gave an EC50 of 200 to 1000 nM.

As for `O=C(Nc1cnc(C2CCN(CC(F)(F)F)CC2)c(F)c1)Nc1c[nH]c2ccc(F)cc12` [Compound 270, 1-(5-fluoro-1H-indol-3-yl)-3-(5-fluoro-6-(1-(2,2,2-trifluoroethyl)piperidin-4-yl)pyridin-3-yl)urea], the EC50 is 40 to 200 nM.

Compound `Cc1cc(NC(=O)Nc2c[nH]c3ccc(Cl)cc23)cnc1C1CCN(CC(F)(F)F)CC1` [Compound 133, 1-(5-chloro-1H-indol-3-yl)-3-(5-methyl-6-(1-(2,2,2-trifluoroethyl)piperidin-4-yl)pyridin-3-yl)urea] displayed a half-maximal effective concentration (EC50) of 40 to 200 nM.

Compound `Cc1cc(NC(=O)Nc2c[nH]c3cc(F)c(F)cc23)cnc1C1CCN(CC(F)(F)F)CC1` [Compound 166, 1-(5,6-difluoro-1H-indol-3-yl)-3-(5-methyl-6-(1-(2,2,2-trifluoroethyl)piperidin-4-yl)pyridin-3-yl)urea] showed an EC50 of 200 to 1000 nM.

The compound `O=C(Nc1ccc(C2CCC(F)(F)CC2)nc1)Nc1c[nH]c2ccc(Br)cc12` [Compound 203, 1-(5-bromo-1H-indol-3-yl)-3-(6-(4,4-difluorocyclohexyl)pyridin-3-yl)urea] showed an EC50 of 40 to 200 nM.

For `O=C(Nc1cnc(C2CC(F)(F)C2)c(Cl)c1)Nc1c[nH]c2ccc(Cl)cc12` [Compound 144, 1-(5-chloro-1H-indol-3-yl)-3-(5-chloro-6-(3,3-difluorocyclobutyl)pyridin-3-yl)urea], the EC50 was in the range of 40 to 200 nM.

In the case of `O=C(Nc1cnc(N2CC3(C2)CC(F)(F)C3)c(Cl)c1)Nc1c[nH]c2c(Br)cc(Cl)cc12` [Compound 244, 1-(7-bromo-5-chloro-1H-indol-3-yl)-3-(5-chloro-6-(6,6-difluoro-2-azaspiro[3.3]heptan-2-yl)pyridin-3-yl)urea], the EC50 lay in the range of 1000 to 5000 nM.

As to `O=C(Nc1ccnc(C2CCC(F)(F)CC2)c1)Nc1c[nH]c2cc(F)c(F)cc12` [Compound 220, 1-(5,6-difluoro-1H-indol-3-yl)-3-(2-(4,4-difluorocyclohexyl)pyridin-4-yl)urea], the half-maximal effective concentration (EC50) lay within 200 to 1000 nM.

Take `O=C(Nc1cnc(C2CCN(CC(F)(F)F)CC2)c(Cl)c1)Nc1c[nH]c2ccc(F)cc12` [Compound 268, 1-(5-chloro-6-(1-(2,2,2-trifluoroethyl)piperidin-4-yl)pyridin-3-yl)-3-(5-fluoro-1H-indol-3-yl)urea]: the EC50 fell in the range of 40 to 200 nM.

`O=C(Nc1cc(Cl)c(C2CCC(F)(F)CC2)cn1)Nc1c[nH]c2ccc(F)cc12` [Compound 287, 1-(4-chloro-5-(4,4-difluorocyclohexyl)pyridin-2-yl)-3-(5-fluoro-1H-indol-3-yl)urea] gave an EC50 of 40 to 200 nM.

`O=C(Nc1cnc(N2CCC(F)(F)CC2)c(CCO)c1)Nc1c[nH]c2ccc(Cl)cc12` [Compound 127, 1-(5-chloro-1H-indol-3-yl)-3-(6-(4,4-difluoropiperidin-1-yl)-5-(2-hydroxyethyl)pyridin-3-yl)urea]: the EC50 was 200 to 1000 nM.

In turn, `O=C(Nc1cnn(C2CCC3(CC2)CC3)c1)Nc1c[nH]c2ccc(Cl)cc12` [Compound 214, 1-(5-chloro-1H-indol-3-yl)-3-(1-(spiro[2.5]octan-6-yl)-1H-pyrazol-4-yl)urea] showed an EC50 of 200 to 1000 nM.

Consider `O=C(Nc1cnc(N2CC3(CN(CC(F)(F)F)C3)C2)c(Cl)c1)Nc1c[nH]c2ccc(Cl)cc12` [Compound 262, 1-(5-chloro-1H-indol-3-yl)-3-(5-chloro-6-(6-(2,2,2-trifluoroethyl)-2,6-diazaspiro[3.3]heptan-2-yl)pyridin-3-yl)urea], for which the EC50 lay within 40 to 200 nM.

Turning to `C[C@@H]1CN(c2ncc(NC(=O)Nc3c[nH]c4ccc(Cl)cc34)cc2Cl)C[C@H](C)O1` [Compound 293, 1-(5-chloro-1H-indol-3-yl)-3-(5-chloro-6-((2S,6R)-2,6-dimethylmorpholino)pyridin-3-yl)urea], the EC50 fell in the range of 40 to 200 nM.

With `Cc1cc(NC(=O)Nc2c[nH]c3cc(F)c(F)cc23)cnc1N1CC2(COC2)C1` [Compound 160, 1-(5,6-difluoro-1H-indol-3-yl)-3-(5-methyl-6-(2-oxa-6-azaspiro[3.3]heptan-6-yl)pyridin-3-yl)urea], the EC50 was over 30000 nM.

On to `O=C(Nc1cnc(N2CCC(F)(F)CC2)cn1)Nc1c[nH]c2ccccc12` [Compound 205, 1-(5-(4,4-difluoropiperidin-1-yl)pyrazin-2-yl)-3-(1H-indol-3-yl)urea], for which the EC50 lay within 200 to 1000 nM.

Regarding `O=C(Nc1cnc(C2CCN(CC(F)(F)F)CC2)c(F)c1)Nc1c[nH]c2ccccc12` [Compound 271, 1-(5-fluoro-6-(1-(2,2,2-trifluoroethyl)piperidin-4-yl)pyridin-3-yl)-3-(1H-indol-3-yl)urea], the EC50 lay in the range of 200 to 1000 nM.

Consider `O=C(Nc1cnc(C2CCC(F)(F)CC2)c(F)c1)Nc1c[nH]c2ccc(Cl)cc12` [Compound 295, 1-(5-chloro-1H-indol-3-yl)-3-(6-(4,4-difluorocyclohexyl)-5-fluoropyridin-3-yl)urea], for which the concentration for a half-maximal effect (EC50) fell in the range of 40 to 200 nM.

As to `C[C@H]1CN(c2ncc(NC(=O)Nc3c[nH]c4cc(F)c(F)cc34)cc2Cl)C[C@H](C)O1` [Compound 147, 1-(5-chloro-6-((2S,6S)-2,6-dimethylmorpholino)pyridin-3-yl)-3-(5,6-difluoro-1H-indol-3-yl)urea], the EC50 was in the range of 40 to 200 nM.

In the case of `O=C(Nc1ccc(N2CCC(F)(F)CC2)nc1)Nc1c[nH]c2cc(Cl)c(Cl)cc12` [Compound 128, 1-(5,6-dichloro-1H-indol-3-yl)-3-(6-(4,4-difluoropiperidin-1-yl)pyridin-3-yl)urea], the EC50 lay in the range of 1000 to 5000 nM.

In turn, `O=C(Nc1cnn(C2CC(F)(F)C2)c1)Nc1c[nH]c2cc(F)c(F)cc12` [Compound 216, 1-(5,6-difluoro-1H-indol-3-yl)-3-(1-(3,3-difluorocyclobutyl)-1H-pyrazol-4-yl)urea] showed an EC50 of 1000 to 5000 nM.

In turn, `O=C(Nc1cnc(N2CCOCC2)c(Cl)c1)Nc1c[nH]c2cc(F)c(F)cc12` [Compound 165, 1-(5-chloro-6-morpholinopyridin-3-yl)-3-(5,6-difluoro-1H-indol-3-yl)urea] yielded a concentration giving a half-maximal response (EC50) of 200 to 1000 nM.

`O=C(Nc1ccc(N2CCC(F)(F)CC2)nn1)Nc1c[nH]c2ccccc12` [Compound 204, 1-(6-(4,4-difluoropiperidin-1-yl)pyridazin-3-yl)-3-(1H-indol-3-yl)urea] registered an EC50 of 1000 to 5000 nM.

For `O=C(Nc1cnn(CC2CCC2)c1)Nc1c[nH]c2ccc(Cl)cc12` [Compound 235, 1-(5-chloro-1H-indol-3-yl)-3-(1-(cyclobutylmethyl)-1H-pyrazol-4-yl)urea], the EC50 was 200 to 1000 nM.

Turning to `O=C(Nc1ccnc(C2CCC(F)(F)CC2)c1)Nc1c[nH]c2ccccc12` [Compound 254, 1-(2-(4,4-difluorocyclohexyl)pyridin-4-yl)-3-(1H-indol-3-yl)urea], the EC50 is 200 to 1000 nM.

`CCc1cc(NC(=O)Nc2c[nH]c3ccc(F)cc23)cnc1N1CCC(F)(F)CC1` [Compound 132, 1-(6-(4,4-difluoropiperidin-1-yl)-5-ethylpyridin-3-yl)-3-(5-fluoro-1H-indol-3-yl)urea] gave an EC50 of 40 to 200 nM.

The compound `COCCN1CCN(c2ncc(NC(=O)Nc3c[nH]c4ccc(Cl)cc34)cc2Cl)CC1` [Compound 135, 1-(5-chloro-1H-indol-3-yl)-3-(5-chloro-6-(4-(2-methoxyethyl)piperazin-1-yl)pyridin-3-yl)urea] returned an EC50 of 200 to 1000 nM.

Compound `O=C(Nc1cnc(N2CCC(F)(F)CC2)c(Cl)c1)Nc1c[nH]c2ccccc12` [Compound 206, 1-(5-chloro-6-(4,4-difluoropiperidin-1-yl)pyridin-3-yl)-3-(1H-indol-3-yl)urea] gave an EC50 of 40 to 200 nM.

`O=C(Nc1cnc(N2CCC3(CC2)CC3)c(Cl)c1)Nc1c[nH]c2ccc(F)cc12` [Compound 239, 1-(5-chloro-6-(6-azaspiro[2.5]octan-6-yl)pyridin-3-yl)-3-(5-fluoro-1H-indol-3-yl)urea]: the EC50 was 40 to 200 nM.

In the case of `C[C@@H]1CN(c2ncc(NC(=O)Nc3c[nH]c4cc(F)c(F)cc34)cc2Cl)CCO1` [Compound 158, (R)-1-(5-chloro-6-(2-methylmorpholino)pyridin-3-yl)-3-(5,6-difluoro-1H-indol-3-yl)urea], the EC50 lay in the range of 200 to 1000 nM.

For `C#CCC1CCN(c2ccc(NC(=O)Nc3c[nH]c4ccccc34)cn2)CC1` [Compound 172, 1-(1H-indol-3-yl)-3-(6-(4-(prop-2-yn-1-yl)piperidin-1-yl)pyridin-3-yl)urea], the EC50 fell in the range of 200 to 1000 nM.

In turn, `C[C@@H]1CN(c2ncc(NC(=O)Nc3c[nH]c4cc(F)c(F)cc34)cc2Cl)C[C@H](C)O1` [Compound 146, 1-(5-chloro-6-((2R,6S)-2,6-dimethylmorpholino)pyridin-3-yl)-3-(5,6-difluoro-1H-indol-3-yl)urea] showed an EC50 of 40 to 200 nM.
